Test [1] addresses T1, Ephrin type-B receptor 3 (Homo sapiens) (UniProt P54753).
T1 sequence (whole entry): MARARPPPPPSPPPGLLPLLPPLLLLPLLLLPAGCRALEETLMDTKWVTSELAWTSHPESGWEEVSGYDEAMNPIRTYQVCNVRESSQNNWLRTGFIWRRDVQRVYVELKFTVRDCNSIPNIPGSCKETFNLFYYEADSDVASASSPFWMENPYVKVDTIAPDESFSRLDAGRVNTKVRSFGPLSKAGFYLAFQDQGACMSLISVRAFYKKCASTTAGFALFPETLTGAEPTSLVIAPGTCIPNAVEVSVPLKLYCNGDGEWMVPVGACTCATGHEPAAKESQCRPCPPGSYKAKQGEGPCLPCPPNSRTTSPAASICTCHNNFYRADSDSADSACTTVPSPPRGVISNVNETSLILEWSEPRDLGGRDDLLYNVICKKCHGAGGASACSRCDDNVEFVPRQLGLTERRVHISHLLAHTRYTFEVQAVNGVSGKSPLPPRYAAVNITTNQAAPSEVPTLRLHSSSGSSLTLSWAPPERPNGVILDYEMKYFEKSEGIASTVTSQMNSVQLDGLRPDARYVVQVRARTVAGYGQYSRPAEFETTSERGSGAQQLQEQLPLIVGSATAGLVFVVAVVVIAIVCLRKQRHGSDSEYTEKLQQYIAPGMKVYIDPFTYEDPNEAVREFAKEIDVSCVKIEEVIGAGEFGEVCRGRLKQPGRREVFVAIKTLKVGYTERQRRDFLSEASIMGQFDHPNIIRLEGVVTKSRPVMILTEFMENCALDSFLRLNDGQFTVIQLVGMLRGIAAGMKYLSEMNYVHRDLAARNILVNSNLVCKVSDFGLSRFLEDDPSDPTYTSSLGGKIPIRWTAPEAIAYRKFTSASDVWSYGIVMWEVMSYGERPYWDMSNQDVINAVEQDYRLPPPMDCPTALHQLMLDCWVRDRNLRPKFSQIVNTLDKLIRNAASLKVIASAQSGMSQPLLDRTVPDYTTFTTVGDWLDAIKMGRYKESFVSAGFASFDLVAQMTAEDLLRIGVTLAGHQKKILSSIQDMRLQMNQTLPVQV
Kind of test: Inhibition of human recombinant EphB3 at 40 nM in presence of ATP by radiometric assay relative to control.

Test [2] addresses Serine/threonine-protein kinase SIK2 (Homo sapiens) (UniProt Q9H0K1). The test can be described thus: Inhibition of human recombinant QIK at 500 nM in presence of ATP by radiometric assay relative to control.
The target in test [3] is T2, Tyrosine-protein kinase ZAP-70 (Homo sapiens) (UniProt P43403).
T2 sequence (whole entry): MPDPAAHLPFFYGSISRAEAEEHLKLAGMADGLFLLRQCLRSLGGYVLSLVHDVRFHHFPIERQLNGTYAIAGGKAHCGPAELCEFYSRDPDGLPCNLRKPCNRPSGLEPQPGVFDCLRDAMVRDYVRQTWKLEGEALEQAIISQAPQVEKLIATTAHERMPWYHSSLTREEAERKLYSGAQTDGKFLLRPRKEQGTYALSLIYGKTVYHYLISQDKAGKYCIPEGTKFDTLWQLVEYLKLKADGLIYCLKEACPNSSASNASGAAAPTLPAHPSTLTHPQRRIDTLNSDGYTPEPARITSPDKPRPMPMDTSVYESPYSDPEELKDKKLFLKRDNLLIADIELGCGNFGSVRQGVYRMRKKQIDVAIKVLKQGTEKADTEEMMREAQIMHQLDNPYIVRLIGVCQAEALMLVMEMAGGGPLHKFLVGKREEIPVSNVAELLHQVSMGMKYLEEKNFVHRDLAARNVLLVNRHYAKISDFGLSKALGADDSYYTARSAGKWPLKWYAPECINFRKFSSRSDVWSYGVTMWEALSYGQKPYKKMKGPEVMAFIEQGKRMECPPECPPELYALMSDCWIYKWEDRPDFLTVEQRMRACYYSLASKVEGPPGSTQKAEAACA
The test can be described thus: Inhibition of human recombinant ZAP70 at 500 nM in presence of ATP by radiometric assay relative to control.

Test [4] has as its target Dual specificity protein kinase CLK1 (Homo sapiens) (UniProt P49759). Kind of test: Inhibition of human recombinant CLK1 at 500 nM in presence of ATP by radiometric assay relative to control.
Test [5] deals with T3, Serine/threonine-protein kinase ULK1 (Homo sapiens) (UniProt O75385).
T3 sequence (whole entry): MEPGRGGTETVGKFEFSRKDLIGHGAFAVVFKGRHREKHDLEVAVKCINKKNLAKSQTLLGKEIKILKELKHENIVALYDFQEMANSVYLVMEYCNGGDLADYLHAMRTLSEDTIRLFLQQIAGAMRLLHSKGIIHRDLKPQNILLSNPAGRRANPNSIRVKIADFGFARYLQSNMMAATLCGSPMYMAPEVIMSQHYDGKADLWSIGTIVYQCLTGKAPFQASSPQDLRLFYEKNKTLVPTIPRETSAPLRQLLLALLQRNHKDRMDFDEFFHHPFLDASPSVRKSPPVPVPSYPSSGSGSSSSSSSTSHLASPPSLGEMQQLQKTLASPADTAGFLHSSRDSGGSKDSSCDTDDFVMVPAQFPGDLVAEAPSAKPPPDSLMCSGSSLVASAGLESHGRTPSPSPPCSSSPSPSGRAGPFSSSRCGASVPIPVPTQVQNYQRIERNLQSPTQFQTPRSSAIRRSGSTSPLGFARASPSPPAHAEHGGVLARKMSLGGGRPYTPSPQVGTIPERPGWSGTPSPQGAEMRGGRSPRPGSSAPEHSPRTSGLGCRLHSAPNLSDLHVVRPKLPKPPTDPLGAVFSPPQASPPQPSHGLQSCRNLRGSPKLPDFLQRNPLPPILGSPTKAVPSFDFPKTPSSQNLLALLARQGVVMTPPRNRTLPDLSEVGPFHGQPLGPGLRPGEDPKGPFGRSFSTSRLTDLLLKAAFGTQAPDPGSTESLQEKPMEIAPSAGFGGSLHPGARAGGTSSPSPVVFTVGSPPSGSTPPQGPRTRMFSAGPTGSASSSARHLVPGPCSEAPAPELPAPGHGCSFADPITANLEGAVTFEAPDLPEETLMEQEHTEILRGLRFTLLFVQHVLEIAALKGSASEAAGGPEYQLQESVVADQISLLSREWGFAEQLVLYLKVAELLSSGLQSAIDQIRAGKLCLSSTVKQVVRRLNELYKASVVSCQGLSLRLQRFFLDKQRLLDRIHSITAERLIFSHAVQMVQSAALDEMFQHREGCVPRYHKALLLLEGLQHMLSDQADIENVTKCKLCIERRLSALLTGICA
The test can be described thus: Inhibition of human recombinant ULK1 at 500 nM in presence of ATP by radiometric assay relative to control.

The target in test [6] is Tyrosine-protein kinase Fyn (Homo sapiens) (UniProt P06241). The test can be described thus: Inhibition of human recombinant FYN at 15 nM related to control ULK1.

What is called inhibition is the percentage by which the read-out fell short of the control.

Serine/threonine-protein kinase SIK2 (Homo sapiens), sequence (Q9H0K1 whole entry, looked up): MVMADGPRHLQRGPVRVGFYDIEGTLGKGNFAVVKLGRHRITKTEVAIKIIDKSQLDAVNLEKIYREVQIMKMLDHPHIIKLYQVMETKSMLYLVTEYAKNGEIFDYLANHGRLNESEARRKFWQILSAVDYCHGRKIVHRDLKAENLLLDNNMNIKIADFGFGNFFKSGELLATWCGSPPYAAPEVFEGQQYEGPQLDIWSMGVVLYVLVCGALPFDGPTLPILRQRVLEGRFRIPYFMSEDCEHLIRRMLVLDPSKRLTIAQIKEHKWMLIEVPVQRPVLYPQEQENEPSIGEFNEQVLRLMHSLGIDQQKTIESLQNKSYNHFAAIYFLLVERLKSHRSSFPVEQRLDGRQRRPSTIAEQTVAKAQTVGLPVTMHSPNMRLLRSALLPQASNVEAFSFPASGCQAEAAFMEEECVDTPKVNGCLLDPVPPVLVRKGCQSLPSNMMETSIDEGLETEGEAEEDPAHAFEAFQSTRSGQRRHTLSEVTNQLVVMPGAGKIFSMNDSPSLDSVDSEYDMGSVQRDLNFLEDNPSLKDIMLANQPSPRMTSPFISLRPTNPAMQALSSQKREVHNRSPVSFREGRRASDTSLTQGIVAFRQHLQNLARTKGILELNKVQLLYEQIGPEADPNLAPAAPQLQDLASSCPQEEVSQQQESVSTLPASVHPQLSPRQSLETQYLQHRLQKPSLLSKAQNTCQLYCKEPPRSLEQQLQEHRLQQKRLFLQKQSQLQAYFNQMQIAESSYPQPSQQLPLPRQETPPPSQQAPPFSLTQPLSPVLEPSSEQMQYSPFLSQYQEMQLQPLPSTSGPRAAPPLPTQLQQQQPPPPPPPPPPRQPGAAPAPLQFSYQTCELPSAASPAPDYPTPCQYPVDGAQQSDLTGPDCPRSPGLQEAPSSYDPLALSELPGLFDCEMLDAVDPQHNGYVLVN
Tyrosine-protein kinase Fyn (Homo sapiens), sequence (P06241 2-537 limits assumed): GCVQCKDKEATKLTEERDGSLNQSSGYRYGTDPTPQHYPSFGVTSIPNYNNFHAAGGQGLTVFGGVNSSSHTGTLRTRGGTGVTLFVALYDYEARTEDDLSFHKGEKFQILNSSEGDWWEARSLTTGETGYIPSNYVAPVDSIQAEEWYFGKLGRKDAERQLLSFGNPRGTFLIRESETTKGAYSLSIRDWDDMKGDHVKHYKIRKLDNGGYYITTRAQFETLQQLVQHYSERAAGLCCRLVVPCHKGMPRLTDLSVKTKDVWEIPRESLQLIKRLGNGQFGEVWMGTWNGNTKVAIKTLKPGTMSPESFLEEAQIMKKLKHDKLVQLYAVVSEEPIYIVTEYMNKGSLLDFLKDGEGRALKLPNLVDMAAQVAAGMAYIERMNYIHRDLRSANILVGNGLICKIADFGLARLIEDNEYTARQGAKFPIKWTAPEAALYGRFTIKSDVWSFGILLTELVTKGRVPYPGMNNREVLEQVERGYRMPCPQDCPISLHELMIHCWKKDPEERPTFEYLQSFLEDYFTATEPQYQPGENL
Dual specificity protein kinase CLK1 (Homo sapiens), sequence (P49759 whole entry, looked up): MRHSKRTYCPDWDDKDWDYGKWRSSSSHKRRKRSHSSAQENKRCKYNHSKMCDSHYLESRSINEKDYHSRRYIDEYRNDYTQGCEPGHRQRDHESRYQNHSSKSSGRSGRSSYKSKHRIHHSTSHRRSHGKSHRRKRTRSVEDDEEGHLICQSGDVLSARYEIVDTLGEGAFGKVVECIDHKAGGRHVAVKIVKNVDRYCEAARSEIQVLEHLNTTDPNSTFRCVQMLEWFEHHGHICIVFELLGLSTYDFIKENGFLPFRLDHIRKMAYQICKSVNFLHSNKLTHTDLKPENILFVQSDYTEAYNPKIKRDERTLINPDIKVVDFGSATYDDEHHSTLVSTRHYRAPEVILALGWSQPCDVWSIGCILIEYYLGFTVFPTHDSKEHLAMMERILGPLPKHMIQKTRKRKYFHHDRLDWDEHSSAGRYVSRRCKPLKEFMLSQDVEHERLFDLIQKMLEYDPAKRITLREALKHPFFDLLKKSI

`O=C(N[C@@H](C1CC1)C(F)(F)F)c1cc(-c2cnn3cc(-c4ccc(F)cc4)cnc23)cs1`: in test [1], the inhibition was determined as 0%.
As for `CNC(=O)c1ccccc1Oc1nc(Nc2cc(OC)c(OC)c(OC)c2)ncc1Br`, the inhibition in test [2] amounted to 0%; in test [3] it was 1%; in test [4] it was 5%; in test [5], 74%.
With `CC(C)[C@H](NC(=O)c1cc(-c2cnn3cc(-c4ccc(OCCN5CCCCC5)cc4)cnc23)cs1)C(F)(F)F`, the fold change (FC) in test [6] was found to be 0.18.

For the origin of these results see ChEMBL document CHEMBL5653631, “A Potent and Selective ULK1 Inhibitor Suppresses Autophagy and Sensitizes Cancer Cells to Nutrient Stress” (iScience, 2018).
